Molecules are shown by their SMILES.

A short description of this data set: HILIC, Waters Atlantis Premier BEH Z-HILIC, 100 × 2.1 mm, 1.7 µm, 40 °C, 0.15 mL/min, estimated dead time 1.5 min; A: water + 20 mM ammonium carbonate + 5 µM medronic acid; B: 10% water + 90% acetonitrile + 2 mM ammonium carbonate + 0.5 µM medronic acid; gradient (min/%B) 0/95 18/60 18.1/20 21.5/20 22/95 23.5/95 25.5/95. The following applies: stereoisomer not certain.

As to `O=C(O)CCC(=O)C(=O)O` [2-Oxoglutaric acid], the LC retention time is 9.44 min. As for `O=C(O)CCC(O)C(=O)O` (stereo not given) [2-hydroxy glutaric acid], the figure is 10 min. Next, `Nc1ncnc2c1ncn2C1OC(COP(=O)(O)OP(=O)(O)O)C(O)C1O` (stereo not given) [ADP]: 12.2 min; `Nc1ncnc2c1ncn2C1OC(COP(=O)(O)O)C(O)C1O` (stereo not given) [AMP]: 9.98 min; `Nc1ncnc2c1ncn2C1OC(COP(=O)(O)OP(=O)(O)OP(=O)(O)O)C(O)C1O` (stereo not given) [ATP]: 14.3 min. Next, `CC(=O)SCCNC(=O)CCNC(=O)C(O)C(C)(C)COP(=O)(O)OP(=O)(O)OCC1OC(n2cnc3c(N)ncnc32)C(O)C1OP(=O)(O)O` (stereo not given) [Acetyl-CoA]: 10.9 min; `Nc1ncnc2c1ncn2C1OC(CO)C(O)C1O` (stereo not given) [Adenosine]: 4.12 min; `O=C(O)CCCCC1SCC2NC(=O)NC21` (stereo not given) [Biotin]: 4.54 min.

`C[N+](C)(C)CC(O)CC(=O)[O-]` (stereo not given) [Carnitine]: the LC retention time is 10.4 min.

Regarding `O=C(O)CC(O)(CC(=O)O)C(=O)O` [Citric acid], the LC retention time is 14.8 min. Next, `CC(C)(COP(=O)(O)OP(=O)(O)OCC1OC(n2cnc3c(N)ncnc32)C(O)C1OP(=O)(O)O)C(O)C(=O)NCCC(=O)NCCS` (stereo not given) [CoenzymeA]: 12.9 min. Next, `Cc1cc2nc3c(=O)[nH]c(=O)nc-3n(CC(O)C(O)C(O)COP(=O)(O)OP(=O)(O)OCC3OC(n4cnc5c(N)ncnc54)C(O)C3O)c2cc1C` (stereo not given) [FAD]: 7.66 min; `O=C(CO)C(O)C(O)C(O)COP(=O)(O)O` (stereo not given) [Fructose 6-phosphate]: 12.2 min.

As for `O=P(O)(O)OCC1OC(O)(COP(=O)(O)O)C(O)C1O` (stereo not given) [Fructose-1,6-bisphosphate], the LC retention time was 16.9 min.

For `Nc1nc2c(ncn2C2OC(COP(=O)(O)OP(=O)(O)OP(=O)(O)O)C(O)C2O)c(=O)[nH]1` (stereo not given) [GTP], the LC retention time was 17.2 min. As for `O=P(O)(O)OCC1OC(O)C(O)C(O)C1O` (stereo not given) [Glucose-6-phosphate], the figure is 13.3 min; as for `NC(CCC(=O)O)C(=O)O` (stereo not given) [Glutamic acid], 10.3 min; as for `NC(=O)CCC(N)C(=O)O` (stereo not given) [Glutamine], 11 min. Take `O=P(O)(O)OCC(O)CO` (stereo not given) [Glycerol-3-phosphate]: the LC retention time was 10.9 min. Consider `OCC1OC(O)C(O)C(O)C1O` (stereo not given) [Hexose], for which the LC retention time was 7.88 min.

With `O=C(O)CC(C(=O)O)C(O)C(=O)O` (stereo not given) [Isocitric acid], the LC retention time is 14.6 min.

Turning to `CCC(C)C(N)C(=O)O` (stereo not given) [Isoleucine], the LC retention time is 6.62 min. As for `CC(O)C(=O)O` (stereo not given) [Lactic Acid], the figure is 3.43 min; as for `CC(C)CC(N)C(=O)O` (stereo not given) [Leucine], 6.18 min. As for `NC(=O)C1=CN(C2OC(COP(=O)(O)OP(=O)(O)OCC3OC(n4cnc5c(N)ncnc54)C(O)C3O)C(O)C2O)C=CC1` (stereo not given) [NADH], the figure is 9.07 min. As for `NC(=O)C1=CN(C2OC(COP(=O)(O)OP(=O)(O)OCC3OC(n4cnc5c(N)ncnc54)C(OP(=O)(O)O)C3O)C(O)C2O)C=CC1` (stereo not given) [NADPH], the figure is 15 min; as for `NC(=O)c1ccc[n+](C2OC(COP(=O)(O)OP(=O)(O)OCC3OC(n4cnc5c(N)ncnc54)C(OP(=O)(O)O)C3O)C(O)C2O)c1` (stereo not given) [NADP], 14.4 min. Consider `NC(=O)c1ccc[n+](C2OC(COP(=O)(O)OP(=O)(O)OCC3OC(n4cnc5c(N)ncnc54)C(O)C3O)C(O)C2O)c1` (stereo not given) [NAD], for which the LC retention time is 10.9 min.

For `C=C(OP(=O)(O)O)C(=O)O` [PEP], the LC retention time is 14.4 min. Take `O=C(O)C(CO)OP(=O)(O)O` (stereo not given) [Phosphoglyceric acid A]: the LC retention time is 13.4 min.

As for `O=C(O)CCC(=O)O` [Succinic Acid], the LC retention time was 10.1 min. Next, `O=C(CO)COP(=O)(O)O` [Triose phosphate]: 10.8 min. On to `CC(=O)NC1C(OP(=O)(O)OP(=O)(O)OCC2OC(n3ccc(=O)[nH]c3=O)C(O)C2O)OC(CO)C(O)C1O` (stereo not given) [UDP-GlcNAc], for which the LC retention time was 10.5 min. Next, `CCC(=O)OC(CC(=O)[O-])C[N+](C)(C)C` (stereo not given) [carnitine-C3]: 6.75 min. Next, `O=C1CC(C(=O)O)NC(=O)N1` (stereo not given) [dihydroorotic acid]: 4.65 min.

These data come from the RepoRT retention time repository.
